From ChEMBL document CHEMBL5214997, “6-Thioguanosine Monophosphate Prodrugs Display Enhanced Performance against Thiopurine-Resistant Leukemia and Breast Cancer Cells” (J Med Chem, 2022) come the findings set out here.

One may read the EC50 as the concentration at which the effect is half-maximal.

One assay relates to THP-1. The experiment in a line: Antiproliferative activity against human THP-1 cells with low HGPRT expression incubated for 48 hrs by CellTiter-Glo2 assay. The format is functional, cell-based. Particulars: THP-1, 48 h. For orientation: Cellular ATP, detected with luciferase, serves as a proxy for viable cell number.
Assay [1] concerns HEK-293T. Description: Antiproliferative activity against HEK293T cells with high HGPRT expression incubated for 48 hrs by CellTiter-Glo2 assay. The format is functional, cell-based. Conditions: Homo sapiens.
For assay [2], the system named is K562. The experiment in a line: Antiproliferative activity against human K562 cells with low HGPRT expression incubated for 48 hrs by CellTiter-Glo2 assay. The format is functional, cell-based. Conditions: K562, 48 h.
The subject of assay [3] is HEK-293T. Description: Effect on p21 mRNA expression in HEK293T cells assessed as increase in labeling efficiency at 100 uM incubated for 16 hrs and measured by TUC-Seq DUAL method. The assay is classed as functional, cell-based. Conditions: Homo sapiens.
In assay [4] the test system is SK-BR-3. Description: Antiproliferative activity against human SK-BR-3 cells with low HGPRT expression incubated for 48 hrs by CellTiter-Glo2 assay. The format is functional, cell-based. Conditions: SK-BR-3, 48 h.
In assay [5] the test system is K562. The experiment in a line: Antiproliferative activity against human K562 cells with low HGPRT expression assessed as cell survival at 1000 uM and incubated for 48 hrs by CellTiter-Glo2 assay. The format is functional. Particulars: read-out: Activity.
Assay [6] has as its system K562. Description: Downregulation of HGPRT mRNA expression in human K562 cells at 1 mM measured after 48 hrs by qPCR analysis. The assay is classed as functional, cell-based. (In general: Real-time PCR tracks product formation cycle by cycle.)
The subject of assay [7] is SK-BR-3. Description: Drug resistance of human SK-BR-3 cells assessed as percentage of resistant cells at 1 mM. The assay is classed as functional.
Assay [8] has as its system SK-BR-3. Description: Downregulation of HGPRT mRNA expression in human SK-BR-3 cells at 1 mM measured after 48 hrs by qPCR analysis. The assay is classed as functional, cell-based.
The nature of assay [9]: Effect on p21 mRNA expression in HEK293T cells assessed as percentage of labeled transcripts at 100 uM incubated for 2 hrs and measured by TUC-Seq DUAL method. The assay is classed as functional, Homo sapiens, HEK-293T.
Assay [10] in a line: Effect on CCNT1 mRNA expression in HEK293T cells assessed as percentage of labeled transcripts at 100 uM incubated for 2 hrs and measured by TUC-Seq DUAL method. The format is functional, Homo sapiens, HEK-293T.
The nature of assay [11]: Effect on ND1 mRNA expression in HEK293T cells assessed as percentage of labeled transcripts at 100 uM incubated for 2 hrs and measured by TUC-Seq DUAL method. The assay is classed as functional, Homo sapiens, HEK-293T.

Active and inactive are the calls of the source. No cut-off for these calls is given here.

Regarding `CC(C)(C)C(=O)SCCOP(=O)(OCCSC(=O)C(C)(C)C)OC[C@H]1O[C@@H](n2cnc3c(=S)[nH]c(N)nc32)[C@H](O)[C@@H]1O`, the concentration for a half-maximal effect (EC50) worked out at 8.4 µM with THP-1, 246 µM with HEK-293T [1] and 62 µM in the assay with K562 [2].

Consider `Nc1nc2c(ncn2[C@@H]2O[C@H](COP3(=O)OCc4ccccc4O3)[C@@H](O)[C@H]2O)c(=S)[nH]1` (some centres not stated), for which the EC50 in the assay on THP-1 came out at 1.4 µM; in the assay on HEK-293T [1] it was 14 µM; in the assay on SK-BR-3 [4], 25 µM; with K562 [2] it was 7.2 µM. The result with HEK-293T [3] was Active.

Take `Nc1nc2[nH]cnc2c(=S)[nH]1` [THIOGUANINE]: the viability at 1000 µM with K562 [5] was 15%. Further, the outcome in the assay on K562 [6] and with SK-BR-3 [8] was Active. For the same compound, the Activity in the assay with SK-BR-3 [7] is reported as 40%. The EC50 in the assay with THP-1 was found to be 0.27 µM; in the assay with HEK-293T [1], 3.6 µM; in the assay on K562 [2], 0.74 µM.

Consider `Nc1nc(=S)c2ncn([C@@H]3O[C@H](CO)[C@@H](O)[C@H]3O)c2[nH]1` [THIOGUANOSINE], for which the Activity in assay [9], in assay [10] and in [11] was 2.5% each time. The EC50 with THP-1 was 0.35 µM; with HEK-293T [1], 4.7 µM; in the assay with K562 [2], 1.3 µM.

On to `CC(=O)Oc1ccc(COP(=O)(O)OC[C@H]2O[C@@H](n3cnc4c(=S)[nH]c(N)nc43)[C@H](O)[C@@H]2O)cc1`, for which the EC50 stood at 0.67 µM in the assay with THP-1, 6.9 µM in the assay with HEK-293T [1], 201 µM in the assay on SK-BR-3 [4] and 2.3 µM in the assay on K562 [2]. Besides, the result with HEK-293T [3] was Active.

For `Nc1nc2c(ncn2[C@@H]2O[C@H](COP3(=O)OCc4cc(Cl)ccc4O3)[C@@H](O)[C@H]2O)c(=S)[nH]1` (some centres not stated), the EC50 is 0.4 µM with THP-1, 15 µM in the assay on HEK-293T [1], 42 µM in the assay with SK-BR-3 [4] and 5.6 µM in the assay with K562 [2]. Further, in the assay with HEK-293T [3], the outcome was Active.

With `CC(=O)Oc1ccc(COP(=O)(OCc2ccc(OC(C)=O)cc2)OC[C@H]2O[C@@H](n3cnc4c(SCc5ccc(OC(C)=O)cc5)nc(N)nc43)[C@H](O)[C@@H]2O)cc1`, the EC50 came out at 0.34 µM with THP-1, 6.7 µM in the assay with HEK-293T [1], 3.5 µM in the assay with SK-BR-3 [4] and 2.6 µM in the assay on K562 [2].

Take `CCC(CC)COC(=O)[C@H](C)NP(=O)(OC[C@H]1O[C@@H](n2cnc3c(=S)[nH]c(N)nc32)[C@H](O)[C@@H]1O)Oc1ccccc1` (some centres not stated): the EC50 worked out at 33 µM in the assay on THP-1 and 92 µM in the assay on K562 [2].
